“Also recorded” adds a separate entry of the source.
Experiments:
Hem-A plasma [1] = test: dPT assay, anti-coagulant activity of NASPs in Hem-A plasma; type: biochemical, human; conditions: for clotting time, dPT: Hem-A plasma without NASP 41.5 seconds; for inherent anticoagulant activity: concentrations up to 5000 nM; for prolongation of clotting time: concentrations>5000 nM
Description: (§1) The dPT assay used was a modified standard clinical PT assay (Nordfang et al. (1991) Thromb Haemost 66:464-467; Welsch et al. (1991) Thrombosis Research 64: 213-222). SIMPLASTIN EXCEL thromboplastin reagent (Organon Teknika) was reconstituted with the manufacturer's diluent and further diluted 1:100 in 0.9% saline. The thromboplastin reagent, 25 mM CaCl2, and plasma samples were pre-warmed to 37° C. before initiating the assay. 100 μl of thawed plasma was aliquoted into microcentrifuge tubes. […] 100 μl of the diluted thromboplastin reagent and 100 μl of 25 mM CaCl2 were added to fibrin cups (Fisher) prewarmed to 37° C. 100 μl of plasma (normal or hemophilic) containing the test agent or saline control was added to the fibrin cups containing the thromboplastin reagent and CaCl2 to initiate clotting. The time for plasma clotting was measured with a BBL FIBROSYSTEM fibrometer.
Test compounds were diluted to 100 μM, 10 μM, 2 μM and 200 nM. For each test compound, 12.5 μl of a diluted solution containing the test compound was added to 237.5 μl of Hem-A plasma and incubated at room temperature. 100 μl of plasma containing the test compound was removed for dPT assays of plasma clotting time as described in Example 2.

TFPI [2] = molecular target: T1, TFPI (Homo sapiens, UniProt P10646); test: dPT assay, inhibition of TFPI activity in Hem-A plasma, TFPI preincubated with NASP; type: biochemical; conditions: for TFPI-neutralizing activity: FIGS. 4-6 / data not shown; for clotting time, dPT: Hem-A + TFPI, plasma alone 44, + TFPI 151 seconds
T1 construct: purchased American Diagnostica (Stamford, Conn.)
T1 sequence (P10646 29-304): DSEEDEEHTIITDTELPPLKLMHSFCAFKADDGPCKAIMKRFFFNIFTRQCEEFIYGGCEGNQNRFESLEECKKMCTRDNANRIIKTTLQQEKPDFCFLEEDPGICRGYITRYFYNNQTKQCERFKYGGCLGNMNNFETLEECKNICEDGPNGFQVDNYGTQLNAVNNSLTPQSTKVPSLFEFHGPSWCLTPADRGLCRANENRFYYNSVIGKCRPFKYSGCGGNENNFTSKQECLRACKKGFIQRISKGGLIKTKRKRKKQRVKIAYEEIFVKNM
Description: as §1
(§2) Inhibition of TFPI activity by NASPs was assessed in dPT clotting assays with normal or hemophilic plasma and added recombinant TFPI. Diluted recombinant TFPI was preincubated with NASPs for 5 minutes at room temperature before plasma was added. After addition of plasma, the mixture was incubated for an additional 25 minutes followed by dPT initiation.

Hem-A plasma [3] = test: dPT assay, Hem-A plasma in absence of exogenous TFPI; type: biochemical, human; conditions: dPT
Description: as §1
The ability of NASPs to accelerate clotting of factor-deficient plasma in the absence of TFPI supplementation was also tested in dPT assays. A procoagulant response, if observed, may be related to neutralization of endogenous TFPI activity, which is present in human plasma at approximately 100 ng/ml (Nordfang et al., supra), largely associated with lipoprotein or platelets (Broze et al. (1992) Semin. Hematol. 29:159-169; Broze et al. (2003) J. Thromb. Haemost. 1:1671-1675).
The ability of NASPs to accelerate clotting of Hem-A plasma in the absence of exogenous TFPI was tested. Fucoidan or PPS were titrated into Hem A plasma and dPT assays were performed. Additionally, the dose-response to factor VIIa was analyzed as a positive control for amplifying extrinsic pathway activation.

Hem-A plasma [4] = test: dPT assay, TFPI titrated into FVIII deficient (Hem-A) plasma; type: biochemical, human
Description: as §1
A 100 μg/mL TFPI stock solution (American Diagnostica, Stamford, Conn.) was sequentially diluted in saline to generate TFPI solutions at the following concentrations: 20, 15, 10, 6, and 2 μg/mL. 5 μl of these TFPI dilutions were mixed with 95 μl of FVIII deficient plasma and incubated at room temperature for 30 minutes. dPT assays were performed as follows: SIMPLASTIN thromboplastin was diluted 1:100 in saline and prewarmed to 37° C. 25 mM CaCl2 and 100 μl of test plasma containing TFPI was prewarmed to 37° C. 100 μl SIMPLASTIN thromboplastin and 100 μl of CaCl2 were mixed and clotting time was measured using a BBL fibrometer.

TFPI [5] = molecular target: T1, TFPI; test: dPT assay, inhibition of TFPI activity in Hem-B plasma, TFPI preincubated with NASP; type: biochemical; conditions: for clotting time, dPT: Hem-B + TFPI, plasma alone 46, + TFPI 101 seconds
Description: as §1, §2
The acceleration of plasma clotting by the NASPs in the presence of TFPI was also tested in Hem-B and normal plasma.

TFPI [6] = molecular target: T1, TFPI; test: dPT assay, inhibition of TFPI activity in Hem-A plasma without preincubation; type: biochemical; conditions: for clotting time, dPT: Hem-A + TFPI, no preincubation, HemA + TFPI 183, alone 45 seconds
Description: as §1
Experiments were repeated without a preincubation of the sulfated polysaccharides with TFPI prior to exposure to plasma. To extend the stringency of the test for NASP inhibition of TFPI activity, TFPI was added to the plasma before the NASP was added.

[7] = system: Hem-A plasma containing 1.25% FACT plasma; test: aPTT assay, NASPs in 1.25% FACT diluted in Hem-A plasma; type: biochemical, human
Description: Activated Partial Thromboplastin Time (aPTT) Assay The aPTT assay was performed as described previously with modifications (PDR Staff Physicians' Desk Reference. 2004, Anderson Lo, Barrowcliffe, T. W., Holmer, E., Johnson, E. A., Sims, G. E. C. Thromb. Res. 1976; 9:575-580). 25 mM CaCl2 and fibrin cups (Fisher) were pre-warmed to 37° C. 0.1 ml of thawed human plasma (normal or hemophilic) was added to warmed test tubes. 5 μl of saline (e.g. Sigma) or 5 μl of test agent (e.g., NASP) dissolved in saline was incubated with 95 μl of plasma for 30 minutes at room temperature. APTT reagent (e.g. Organon Teknika) was reconstituted in 3 ml distilled water and 0.1 ml of the reconstituted solution containing the APTT reagent was added to each test tube. 0.2 ml of plasma containing the test agent or saline control and aPTT reagent were transferred from test tubes to pre-warmed fibrin cups and incubated for 2-3 minutes. 0.1 ml of pre-warmed 25 mM CaCl2 was added to initiate clotting, and the time for plasma clotting was measured with a BBL FIBROSYSTEM fibrometer.
The effect of NASPs on the clotting time of plasma was determined as follows: 5 μl of a NASP was added to 95 μl of 1.25% FACT diluted in human Hem-A plasma and incubated at room temperature for 30 minutes. aPTT assays were performed to determine plasma clotting time as described in Example 1.

Substance: N-Acetyl-de-O-Sulfated-Heparin [NA-de-O-SH]
- clotting time, dPT (Hem-A plasma [1]; 10 nM): 40 s
- clotting time, dPT (Hem-A plasma [1]; 100 nM): 40 s
- clotting time, dPT (Hem-A plasma [1]; 500 nM): 40 s
- clotting time, dPT (Hem-A plasma [1]; 5000 nM): 40 s
- inherent anticoagulant activity (Hem-A plasma [1]): failed to show inherent anticoagulant activity
- prolongation of clotting time (Hem-A plasma [1]; dPT): little or no prolongation of clotting time
- TFPI-neutralizing activity (TFPI [2]; dPT): did not exhibit any TFPI-neutralizing activity
- acceleration of hemophilic plasma clotting in the absence of TFPI addition (Hem-A plasma [3]): failed to accelerate clotting times

Substance: De-N-Sulfated-Acetylated-Heparin [De-N—S-AH]
- clotting time, dPT (Hem-A plasma [1]; 10 nM): 39 s
- clotting time, dPT (Hem-A plasma [1]; 100 nM): 37 s
- clotting time, dPT (Hem-A plasma [1]; 500 nM): 40 s
- clotting time, dPT (Hem-A plasma [1]; 5000 nM): 55 s
- inherent anticoagulant activity (Hem-A plasma [1]): failed to show inherent anticoagulant activity
- TFPI-neutralizing activity (TFPI [2]; dPT): did not exhibit any TFPI-neutralizing activity
- acceleration of hemophilic plasma clotting in the absence of TFPI addition (Hem-A plasma [3]): failed to accelerate clotting times

Substance: De-N-Sulfated-Heparin [De-N-SH]
- clotting time, dPT (Hem-A plasma [1]; 10 nM): 40 s
- clotting time, dPT (Hem-A plasma [1]; 100 nM): 38 s
- clotting time, dPT (Hem-A plasma [1]; 500 nM): 38 s
- clotting time, dPT (Hem-A plasma [1]; 5000 nM): 41 s
- inherent anticoagulant activity (Hem-A plasma [1]): failed to show inherent anticoagulant activity
- prolongation of clotting time (Hem-A plasma [1]; dPT): little or no prolongation of clotting time
- TFPI-neutralizing activity (TFPI [2]; dPT): did not exhibit any TFPI-neutralizing activity
- acceleration of hemophilic plasma clotting in the absence of TFPI addition (Hem-A plasma [3]): failed to accelerate clotting times

Substance: TFPI: human recombinant TFPI from American Diagnostica
- Clotting time (Hem-A plasma [4]; TFPI 0.1 μg/mL in plasma): 60 s
- Clotting time (Hem-A plasma [4]; TFPI 0.3 μg/mL in plasma): 94 s
- Clotting time (Hem-A plasma [4]; TFPI 0.5 μg/mL in plasma): 98 s
- Clotting time (Hem-A plasma [4]; TFPI 0.75 μg/mL in plasma): 173 s
- Clotting time (Hem-A plasma [4]; TFPI 1 μg/mL in plasma): >200 s
- Clotting time of Hem-B + TFPI (TFPI [5]; no NASP, Hem-B alone 46 seconds): Clotting time of Hem-B + TFPI: 101 seconds.
- clotting time of plasma with TFPI (TFPI [2]; TFPI approximately 0.5 μg/ml, from approximately 40 seconds, depending on experiment and source of plasma): 100 to 200 s
- Clotting time of Hem-A plasma + TFPI (TFPI [2]; no NASP, TFPI approximately 0.5 μg/ml, plasma alone 44 seconds): Clotting time of Hem-A plasma + TFPI is 151 seconds.
- Clotting time HemA + TFPI (TFPI [6]; no NASP, Hem-A alone 45 seconds): HemA + TFPI: 183 seconds

Substance: N-Acetyl-Heparin [NAH]
- clotting time, dPT (Hem-A plasma [1]; 10 nM): 38 s
- clotting time, dPT (Hem-A plasma [1]; 100 nM): 37 s
- clotting time, dPT (Hem-A plasma [1]; 500 nM): 36 s
- clotting time, dPT (Hem-A plasma [1]; 5000 nM): 38 s
- prolongation of clotting time (Hem-A plasma [1]; dPT): little or no prolongation of clotting time
- clotting time, dPT (TFPI [5]; 0.16 nM): 102 s
- clotting time, dPT (TFPI [5]; 0.8 nM): 101 s
- clotting time, dPT (TFPI [5]; 4 nM): 106 s
- clotting time, dPT (TFPI [5]; 20 nM): 106 s
- clotting time, dPT (TFPI [5]; 100 nM): 94 s
- clotting time, dPT (TFPI [5]; 500 nM): 68 s
- clotting time, dPT (TFPI [2]; 0.16 nM, preincubation): 144 s
- clotting time, dPT (TFPI [2]; 0.8 nM, preincubation): 158 s
- clotting time, dPT (TFPI [2]; 4 nM, preincubation): 160 s
- clotting time, dPT (TFPI [2]; 20 nM, preincubation): 141 s
- clotting time, dPT (TFPI [2]; 100 nM, preincubation): 99 s
- clotting time, dPT (TFPI [2]; 500 nM, preincubation): 84 s
- TFPI-neutralizing activity (TFPI [2]; dPT): only weak TFPI-neutralizing activity
- concentration that accelerates (shortens) clotting of Hem-A plasma containing TFPI (TFPI [2]; dPT, preincubation): approximately 100 nM
- clotting time, dPT (TFPI [6]; 0.8 nM): 165 s
- clotting time, dPT (TFPI [6]; 4 nM): 180 s
- clotting time, dPT (TFPI [6]; 20 nM): 184 s
- clotting time, dPT (TFPI [6]; 100 nM): 125 s
- clotting time, dPT (TFPI [6]; 500 nM): 89 s
- acceleration of hemophilic plasma clotting in the absence of TFPI addition (Hem-A plasma [3]): had no activity; also recorded: did not accelerate hemophilic plasma clotting times
- clotting time, aPTT ([7]; 0.8 nM): 70 s
- clotting time, aPTT ([7]; 4 nM): 69 s
- clotting time, aPTT ([7]; 20 nM): 67 s
- clotting time, aPTT ([7]; 100 nM): 74 s
- clotting time, aPTT ([7]; 500 nM): 85 s
- concentration producing approximately 50% prolongation in clotting time, fold higher than for heparin ([7]; APTT, Hem-A plasma): > 500 fold

Substance: Sodium Heparin
- clotting time, dPT (Hem-A plasma [1]; 10 nM): 40 s
- clotting time, dPT (Hem-A plasma [1]; 100 nM): 92 s
- clotting time, dPT (Hem-A plasma [1]; 500 nM): 400 s
- anticoagulant activity (Hem-A plasma [1]; dPT, concentrations exceeding 10 nM): markedly anticoagulant
- effect on clotting time of Hem-A plasma containing TFPI (TFPI [2]; dPT, not shown): only prolonged clotting times
- clotting time, aPTT ([7]; 0.8 nM): 70 s
- clotting time, aPTT ([7]; 4 nM): 70 s
- clotting time, aPTT ([7]; 20 nM): 200 s
- clotting time, aPTT ([7]; 100 nM): Not clotted
- clotting time, aPTT ([7]; 500 nM): Not clotted
